Laboratory results from patent US9624215B2, “Amine derivative or salt thereof” (TOYAMA CHEMICAL CO., LTD., priority 2012, dated 2017).

What follows are compounds tested on normal human neonatal foreskin epidermal keratinocytes (NHEK-F) (assay: Cell proliferation inhibition test). Conditions: Keratinocyte, 72 h, NHEK-F cells, three days incubation, ATPlite or CellTiterGlo, read-out: IC50 (concentration of the compound at which the cell count is reduced by 50%).
Type: cell-based
Method: 2×10^3 normal human neonatal foreskin epidermal keratinocytes (NHEK-F) (Kurabo, KK-4009) were suspended in 100 μL of Humedia-EG2 (Kurabo, KK-2150S) medium, plated in a 96-well plate and incubated overnight. The test compound was added on the following day and the cells were incubated for further three days. The cell count was determined using ATPlite (PerkinElmer, 6016739) or CellTiterGlo (Promega, G7573).
The inhibition rate was calculated from the following formula to determine the concentration of the compound at which the cell count is reduced by 50% (IC50). Inhibition rate (%)=100−(cell count in the presence of test compound/cell count in the absence of test compound)×100

O=C(O)c1cc(C2CC2)cnc1Nc1ccc2c(ccn2CCCC(F)(F)F)c1 [Example 616, 5-cyclopropyl-2-((1-(4,4,4-trifluorobutyl)-1H-indol-5-yl)amino)nicotinic acid] and CCCn1ccc2cc(Nc3ncc(C4CC4)cc3C(=O)O)ccc21 [Example 636, 5-cyclopropyl-2-((1-propyl-1H-indol-5-yl)amino)nicotinic acid] fall in the same range of IC50: 10 to 100 nM for the first, 10 to 100 nM for the second.

Cn1ccc2cc(Nc3ncc(C4CC4)cc3C(=O)O)cc(-c3cccc(F)c3F)c21 [Example 587, 5-cyclopropyl-2-((7-(2,3-difluorophenyl)-1-methyl-1H-indol-5-yl)amino)nicotinic acid] and Cn1ccc2cc(Nc3ncc(C4CC4)cc3C(=O)O)cc(-c3ccncc3F)c21 [Example 589, 5-cyclopropyl-2-((7-(3-fluoropyridin-4-yl)-1-methyl-1H-indol-5-yl)amino)nicotinic acid] cannot be ordered by IC50: at most 10 nM for the first, 10 to 100 nM for the second.

CS(=O)(=O)NC(=O)c1cc(C2CC2)cnc1Nc1ccc2c(ccn2-c2ccccc2)c1 [Example 159, 5-cyclopropyl-N-(methylsulfonyl)-2-((1-phenyl-1H-indol-5-yl)amino)nicotinamide] and O=C(O)c1cc(C2CC2)cnc1Nc1cccc2c1ccn2-c1ccccc1 [Example 433, 5-cyclopropyl-2-((1-phenyl-1H-indol-4-yl)amino)nicotinic acid] cannot be ordered by IC50: 10 to 100 nM for the first, at most 10 nM for the second.

CC(C)Cn1ccc2ccc(Nc3ncc(C4CC4)cc3C(=O)O)cc21 [Example 521, 5-cyclopropyl-2-((1-isobutyl-1H-indol-6-yl)amino)nicotinic acid] and CC(C)Cn1ccc2cc(Nc3ncc(C4CC4)cc3C(=O)O)cnc21 [Example 547, 5-cyclopropyl-2-((1-isobutyl-1H-pyrrolo(2,3-b)pyridin-5-yl)amino)nicotinic acid] cannot be ordered by IC50: at most 10 nM for the first, 10 to 100 nM for the second.

First: Cc1cc2cc(Nc3ncc(C4CC4)cc3C(=O)O)ccc2n1C [Example 391, 5-cyclopropyl-2-((1,2-dimethyl-1H-indol-5-yl)amino)nicotinic acid]
Second: Cc1cn(CC(C)C)c2ccc(Nc3ncc(C4CC4)cc3C(=O)O)cc12 [Example 535, 5-cyclopropyl-2-((1-isobutyl-3-methyl-1H-indol-5-yl)amino)nicotinic acid]
The IC50 of the first is higher: 100 to 1000 nM for the first, at most 10 nM for the second.

Cn1ccc2cc(Nc3ncc(C4CC4)cc3C(=O)O)cc(-c3ccccc3C(F)(F)F)c21 [Example 479] and Cn1ccc2cc(Nc3ncc(C4CC4)cc3C(=O)O)cc(-c3ccccc3Cl)c21 [Example 488, 2-((7-(2-chlorophenyl)-1-methyl-1H-indol-5-yl)amino)-5-cyclopropylnicotinic acid] cannot be ordered by IC50: at most 10 nM for the first, at most 10 nM for the second.

First: CC(C)c1ccc(Nc2ccc3c(ccn3Cc3ccccc3)c2)c(C(=O)O)c1 [Example 114, 2-((1-benzyl-1H-indol-5-yl)amino)-5-isopropylbenzoic acid]
Second: O=C(O)c1cc(Cl)ccc1Nc1ccc2ccn(Cc3ccccc3)c2c1 [Example 4, 2-((1-benzyl-1H-indol-6-yl)amino)-5-chlorobenzoic acid]
The IC50 of the first is lower: at most 10 nM for the first, 100 to 1000 nM for the second.

O=C(O)c1cc(C2CC2)cnc1Nc1cnc2c(ccn2Cc2ccccc2)c1 [Example 545, 2-((1-benzyl-1H-pyrrolo(2,3-b)pyridin-5-yl)amino)-5-cyclopropylnicotinic acid] and Cc1cc(Nc2ncc(C3CC3)cc2C(=O)O)cc2ccn(Cc3ccccc3)c12 [Example 629, 2-((1-benzyl-7-methyl-1H-indol-5-yl)amino)-5-cyclopropylnicotinic acid] cannot be ordered by IC50: at most 10 nM for the first, at most 10 nM for the second.

Cn1ccc2cc(Nc3ncc(C4CC4)cc3C(=O)O)cc(C3CC3)c21 [Example 409, 5-cyclopropyl-2-((7-cyclopropyl-1-methyl-1H-indol-5-yl)amino)nicotinic acid] and Cn1ccc2cc(Nc3ncc(C4CC4)cc3C(=O)O)cc(CCC3CCCCC3)c21 [Example 593, 2-((7-(2-cyclohexylethyl)-1-methyl-1H-indol-5-yl)amino)-5-cyclopropylnicotinic acid] cannot be ordered by IC50: 10 to 100 nM for the first, at most 10 nM for the second.

Compared with Cn1ccc2cc(Nc3ncc(C4CC4)cc3C(=O)O)cc(-c3cncnc3)c21 [Example 591, 5-cyclopropyl-2-((1-methyl-7-(pyrimidin-5-yl)-1H-indol-5-yl)amino)nicotinic acid], Cn1ccc2cc(Nc3ncc(C4CC4)cc3C(=O)O)cc(-c3cccc(Cl)c3)c21 [Example 489, 2-((7-(3-chlorophenyl)-1-methyl-1H-indol-5-yl)amino)-5-cyclopropylnicotinic acid] is lower in IC50: 100 to 1000 nM for the first, at most 10 nM for the second.

Cn1cc(-c2ccccc2)c2cc(Nc3ncc(Cl)cc3C(=O)O)ccc21 [Example 647, 5-chloro-2-((1-methyl-3-phenyl-1H-indol-5-yl)amino)nicotinic acid] and Cn1cc(-c2ccccc2)c2ccc(Nc3ncc(C4CC4)cc3C(=O)O)cc21 [Example 41, 5-cyclopropyl-2-((1-methyl-3-phenyl-1H-indol-6-yl)amino)nicotinic acid] fall in the same range of IC50: 10 to 100 nM for the first, 10 to 100 nM for the second.

First: COC(=O)c1cc(C2CC2)cnc1Nc1ccc2c(c1)c(-c1cccc(C#N)c1)cn2C [Example 630]
Second: CCn1cc(-c2ccccc2)c2cc(Nc3ncc(C4CC4)cc3C(=O)O)ccc21 [Example 170, 5-cyclopropyl-2-((1-ethyl-3-phenyl-1H-indol-5-yl)amino)nicotinic acid]
The IC50 of the first is higher: 100 to 1000 nM for the first, 10 to 100 nM for the second.

Cn1ccc2cc(Nc3ncc(C4CC4)cc3C(=O)O)cc(-c3ccc(C(F)(F)F)cc3)c21 [Example 481] and Cn1ccc2cc(Nc3ncc(C4CC4)cc3C(=O)O)cc(-c3ccc(Cl)cc3)c21 [Example 490, 2-((7-(4-chlorophenyl)-1-methyl-1H-indol-5-yl)amino)-5-cyclopropylnicotinic acid] cannot be ordered by IC50: at most 10 nM for the first, at most 10 nM for the second.

First: CCn1c2c(c3cc(Nc4ncc(C5CC5)cc4C(=O)O)ccc31)CCCC2 [Example 166, 5-cyclopropyl-2-((9-ethyl-2,3,4,9-tetrahydro-1H-carbazol-6-yl)amino)nicotinic acid]
Second: Cn1cc(C2CCCC2)c2cc(Nc3ncc(C4CC4)cc3C(=O)O)ccc21 [Example 614, 2-((3-cyclopentyl-1-methyl-1H-indol-5-yl)amino)-5-cyclopropylnicotinic acid]
The IC50 of the first is higher: 100 to 1000 nM for the first, 10 to 100 nM for the second. The second is the more potent here.

Cc1cc(C)cc(Cn2ccc3cc(Nc4ncc(C5CC5)cc4C(=O)O)ccc32)c1 [Example 498, 5-cyclopropyl-2-((1-(3,5-dimethylbenzyl)-1H-indol-5-yl)amino)nicotinic acid] and O=C(O)c1cc(C2CC2)cnc1Nc1ccc2c(ccn2Cc2cccc(O)c2)c1 [Example 505, 5-cyclopropyl-2-((1-(3-hydroxybenzyl)-1H-indol-5-yl)amino)nicotinic acid] cannot be ordered by IC50: at most 10 nM for the first, at most 10 nM for the second.

O=C(O)c1cc(Cl)ccc1Nc1ccc2c(ccn2-c2cnc3ccccc3c2)c1 [Example 317, 5-chloro-2-((1-(quinolin-3-yl)-1H-indol-5-yl)amino)benzoic acid] and O=C(O)c1cc(Cl)ncc1Nc1ccc2c(ccn2Cc2ccccc2)c1 [Example 229, 5-((1-benzyl-1H-indol-5-yl)amino)-2-chloroisonicotinic acid] cannot be ordered by IC50: at most 10 nM for the first, 10 to 100 nM for the second.

O=C(O)c1cc(C2CC2)cnc1Nc1cccc2c(-c3ccccc3)cccc12 [Example 367, 5-cyclopropyl-2-((5-phenylnaphthalen-1-yl)amino)nicotinic acid] and O=C(O)c1cc(C2CC2)cnc1Nc1ccc2cccc(-c3ccccc3)c2c1 [Example 179, 5-cyclopropyl-2-((8-phenylnaphthalen-2-yl)amino)nicotinic acid] cannot be ordered by IC50: at most 10 nM for the first, at most 10 nM for the second.

O=C(O)c1cc(C2CC2)cnc1Nc1ccc2c(ccn2CC2CC2)c1 [Example 146, 5-cyclopropyl-2-((1-(cyclopropylmethyl)-1H-indol-5-yl)amino)nicotinic acid] and O=C(O)c1cc(C2CC2)cnc1Nc1cccc2c1ccn2CC1CCCC1 [Example 537, 2-((1-(Cyclopentylmethyl)-1H-indol-4-yl)amino)-5-cyclopropylnicotinic acid] cannot be ordered by IC50: 10 to 100 nM for the first, at most 10 nM for the second.

O=C(O)c1cc(C2CC2)cnc1Nc1cccc2c(=O)n(-c3ccccc3)cnc12 [Example 369, 5-cyclopropyl-2-((4-oxo-3-phenyl-3,4-dihydroquinazolin-8-yl)amino)nicotinic acid] and O=C(O)c1cc(C2CC2)cnc1Nc1cccc2c1ccc(=O)n2-c1ccccc1 [Example 401, 5-cyclopropyl-2-((2-oxo-1-phenyl-1,2-dihydroquinolin-5-yl)amino)nicotinic acid] fall in the same range of IC50: 100 to 1000 nM for the first, 100 to 1000 nM for the second.

O=C(O)c1cc(C2CC2)ccc1Nc1cccc2c1ccc(=O)n2-c1ccccc1 [Example 539, 5-cyclopropyl-2-((2-oxo-1-phenyl-1,2-dihydroquinolin-5-yl)amino)benzoic acid] and O=C(O)c1cc(C2CC2)ccc1Nc1ccc2[nH]cc(-c3ccccc3)c2c1 [Example 377, 5-cyclopropyl-2-((3-phenyl-1H-indol-5-yl)amino)benzoic acid] cannot be ordered by IC50: at most 10 nM for the first, 10 to 100 nM for the second.

Cc1c(Nc2ncc(C3CC3)cc2C(=O)O)ccc2c1ccn2Cc1ccccc1 [Example 573] and O=C(O)c1cc(C2CC2)cnc1Nc1ccc2c(ccn2Cc2cccnc2)c1 [Example 137, 5-cyclopropyl-2-((1-(pyridin-3-ylmethyl)-1H-indol-5-yl)amino)nicotinic acid] cannot be ordered by IC50: at most 10 nM for the first, 10 to 100 nM for the second.

COCCCc1cc(Nc2ncc(C3CC3)cc2C(=O)O)cc2ccn(CC3CC3)c12 [Example 609, 5-cyclopropyl-2-((1-(cyclopropylmethyl)-7-(3-methoxypropyl)-1H-indol-5-yl)amino)nicotinic acid] and COCCNc1cccc(Cn2ccc3cc(Nc4ncc(C5CC5)cc4C(=O)O)ccc32)c1 [Example 510, 5-cyclopropyl-2-((1-(3-((2-methoxyethyl)amino)benzyl)-1H-indol-5-yl)amino)nicotinic acid] cannot be ordered by IC50: at most 10 nM for the first, at most 10 nM for the second.
